Source: US7795305B2, “CDDO-compounds and combination therapies thereof” (Board of Regents, The University of Texas System, priority 2000, dated 2010)

Assays:
PPARγ LBD = target: T1, PPARγ LBD (Homo sapiens, UniProt P37231); experiment: Scintillation proximity assay (SPA), competition binding; conditions: read-out: Ki, competition with [3H]-rosiglitazone for binding to PPARγ LBD
T1 construct: bacterially expressed PPARγ LBD; made in house
From the text: PPARγ, a member of a family of nuclear receptors, induces differentiation and growth arrest in preadipocyte cells and can mediate inflammatory processes.

U937 cells = experiment: Apoptotic sub-G1 cells; type: cell-based, human; conditions: 1 μM, 48 hrs
Procedure: Cell kinetic and DNA fragmentation studies. The cell cycle kinetics was determined by staining cells with acridine orange for cellular DNA and RNA content followed by flow cytometeric analysis as described. Samples were measured in a FACScan flow cytometer (Becton Dickinson, San Jose, Calif.) using the 488-nm line of a […] argon laser and filter settings for green (530 nm) (DNA) and red (585 nm) (RNA) fluorescence. Ten thousand events were stored in list mode for analysis. The percentage of cells in the “sub G1 peak” defined the proportion of apoptotic cells in the tested populations. […] Cell-cycle kinetics was analyzed using ModFit software (Verity Software House, Inc., Topsham, Me.).

HL-60 cells [1] = experiment: Differentiation by CD11b/CD14 flow cytometry; type: cell-based, human; conditions: 7 days, 0.5 μM
GAL4-PPARγ = experiment: Gal4-PPARγ chimeric protein luciferase transactivation; type: cell-based
Procedure: To determine if bound CDDO transactivates PPARγ, a Gal4-PPARγ chimeric protein was used to drive the expression of luciferase linked to the DNA binding sequence of GAL4 (FIG. 11B) (Wang et al., 2000). […] All known pharmacological PPARγ ligands had anti-proliferative and differentiating effects only when used at higher (3 or 5 μM)concentrations.

NB4 cells = experiment: Cell surface Fas/CD95 expression by flow cytometry; type: cell-based, human; conditions: 0.5 μM, 48 hours (24.8 in DMSO-treated cells)
Procedure: Immunophenotyping. The PE-conjugated anti-CD11b, FITC-conjugated anti-CD14 monoclonal antibody (mAb) (Becton Dickinson) and PE-conjugated anti-CD95 mAb (PharMingen) were used at a 1/10 dilution. The percentage of positive cells was calculated by subtracting the percentage of cells with a fluorescence intensity greater than the set marker using the isotype control (background) from the percentage of cells with a fluorescence intensity greater than the same marker using the specific antibody.
Mechanisms of CDDO-induced apoptosis in leukemia cell lines and in primary AML samples were also determined. The involvement of the death receptor/Fas pathway was studied in NB4 cells. Treatment with 0.5 μM CDDO induced cell surface Fas/CD95 expression at 48 hours (MFI 34.8 vs 24.8 in DMSO-treated cells and 26 in untreated control). At this concentration, 22.3% of cells were annexin V positive compared with 11.4% in DMSO-controls. At 1 μM, 56.3% of cells were apoptotic. Similarly, 1 μM CDDO induced Fas expression in 7/12 AML CD34+ cells (MFI, 22.3±3.5 in DMSO-controls, 40±4.3 in CDDO-treated CD34+ cells, p<0.01).

[2] = test system: Bcl-2 protein in U937 cells; experiment: Bcl-2 protein by quantitative flow cytometry; type: cell-based, human; conditions: 1 μM, 72 hrs
Procedure: The involvement of the mitochondrial apoptotic pathway in CDDO mediated apoptosis was analyzed in U937 cells.

HL-60 cells [3] = experiment: Annexin V staining; type: cell-based, human; conditions: 0.1 μM CDDO-Me alone or combined with 1 μM ATRA
Procedure: Annexin V staining. Cells were washed in phosphate-buffered saline (PBS) and resuspended in 100 μl of binding buffer containing Annexin V (Roche Diagnostic Corporation, Indianapolis, Ind.). Cells were analyzed by flow cytometry after the addition of propidium iodide (PI). Annexin V binds to those cells that express phosphatidylserine on the outer layer of the cell membrane, and PI stains the cellular DNA of those cells with a compromised cell membrane. This allows for live cells (unstained with either fluorochrome) to be discriminated from apoptotic cells (stained only with annexin V) and necrotic cells (stained with both annexin and PI).
CDDO-Me. CDDO-Me and retinoids synergistically decrease viability and induce differentiation in leukemic cell lines. The inventors tested the Effect of CDDO-Me/ATRA combinations in different leukemic cell lines. […] This was confirmed in HL-60 cells by annexin V staining (17.9 vs 30% positive cells when 0.1 μM of CDDO-Me was combined with 1 μM ATRA). In primary AML, ATRA enhanced CDDO-Me-induced apoptosis in 3/8 samples tested (an example of subG1 flow cytometry in AML sample shown in FIG. 32).

KG-1 = experiment: Growth inhibition of leukemic cell line; type: cell-based, human
From the text: (§1) Suspension culture of leukemic cells.

NB4 = experiment: Growth inhibition of leukemic cell line; type: cell-based, human
From the text: as §1

ERK1/2 in U937 cells = experiment: ERK1/2 phosphorylation, Western blot; type: cell-based, human; conditions: 1 μM, 3 hours
Procedure: Western blot analysis. An equal amount of protein lysate was placed on 12% SDS-PAGE for 2 hours at 100 volts, followed by transfer of the protein to a Nytran membrane (S&S, Heween, N.H.) and immunoblotting. Polyclonal rabbit antibodies to Bcl-2, Bcl-XL, and Bax were kindly provided by Dr. J. C. Reed. Antibodies against PARP was obtained from PharMingen (San Diego, Calif.), DFF-45 from Oncogene (Cambridge, Mass.), XIAP from Transduction Laboratories (Lexington, Ky.), caspase-3 from PharMingen, phospho-specific anti-pERK1/2 antibodies from Calbiochem (San Diego, Calif.). A specific antibody recognizing only the p20-processed caspase-3 band was provided by Idun Pharmaceutical, Inc. (La Jolla, Calif.).
Since PKC-α and the MAP kinases ERK1 (p44) and ERK2 (p42) have been identified as physiologic Bcl-2 kinases, studies were performed to assess their activation status. […] However, both ERK1 and ERK2 were prominently detected in the mitochondrial membranes. […] Treatment of K562 cells with 1 μM of CDDO-Me in vivo abrogated ERK kinase activity similar to specific MEK inhibitor […]. No effect on Akt activity was seen. These findings indicate that CDDO-Me induces apoptosis by inhibition of ERK1/2 and Bcl-2 phosphorylation.

U937 and HL-60 cells = experiment: Phi-Phi-Lux cleavage with caspase-3 inhibitor Z-DEVD-fmk pre-treatment; type: cell-based, human
Procedure: Detection of active caspases. The cell-permeable fluorogenic substrate Phi-Phi-Lux-G1D2 was administered to monitor caspase activity according to the manufacturer's recommendations (OncoImmunin, Inc, Kensington, Md.). Briefly, 10^6 cells were resuspended in 5 μL of substrate solution and incubated for 1 hour at 37° C. in the dark. After incubation, cells were washed, and the fluorescence emission was determined using the FL-1 channel of a Becton Dickinson FACScan flow cytometer.
CDDO-Me. […] Effects of CDDO-Me on the cleavage of caspase-3 were analyzed utilizing the fluorogenic substrate of caspase-3 Phi-Phi-Lux.

T1 sequence (P37231 238-503 limits assumed): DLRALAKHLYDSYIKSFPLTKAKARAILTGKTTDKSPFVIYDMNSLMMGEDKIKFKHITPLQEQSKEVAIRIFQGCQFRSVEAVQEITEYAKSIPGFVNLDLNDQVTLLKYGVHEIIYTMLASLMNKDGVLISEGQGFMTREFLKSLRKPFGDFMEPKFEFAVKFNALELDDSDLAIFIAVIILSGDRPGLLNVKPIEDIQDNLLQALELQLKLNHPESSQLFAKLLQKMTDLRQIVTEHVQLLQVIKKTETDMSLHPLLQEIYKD

Row | Structure (SMILES) | Ki (PPARγ LBD) | apoptotic sub-G1 cells (U937 cells) | CD11b % (HL-60 cells [1]) | transactivation of GAL4-PPARγ (GAL4-PPARγ) | cell surface Fas/CD95 expression, MFI (NB4 cells) | decrease in Bcl-2 protein [2] | annexin V positive cells (HL-60 cells [3]) | IC50 (KG-1) | IC50 (NB4) | activation of ERK1/2 (ERK1/2 phosphorylation) (ERK1/2 in U937 cells) | cleavage of Phi-Phi-Lux (U937 and HL-60 cells; CDDO-Me without inhibitor) | cleavage of Phi-Phi-Lux (U937 and HL-60 cells; pre-treatment with 25 μM Z-DEVD-fmk for 1 hour)
1 | CC1(C)CCC2(C(=O)O)CCC3(C)C(C(=O)C=C4C5(C)C=C(C#N)C(=O)C(C)(C)C5CCC43C)C2C1 (stereo not drawn) [CDDO, 2-cyano-3,12-dioxoolen-1,9-dien-28-oic acid] | 12 nM | 69.4% | 83.1% | transactivates GAL4-PPARγ in a dose-dependent manner | 34.8 | > 40% |  |  |  |  |  | 
2 | COC(=O)[C@]12CCC(C)(C)C[C@H]1[C@H]1C(=O)C=C3[C@@]4(C)C=C(C#N)C(=O)C(C)(C)[C@@H]4CC[C@@]3(C)[C@]1(C)CC2 [CDDO-Me] |  |  |  |  |  |  | 17.9% | 400 nM | 270 nM | blocked the activation of ERK1/2 | 15.1% | 2.7%
